# Reference: patent US11505525B2, “Branched discrete PEG constructs” (Quanta BioDesign, Ltd., priority 2011, dated 2022)
# Experiments:
# TAG-72 = assay: Competition affinity assay of CC49-Fab′-branched dPEGs; assay type: binding; conditions: Fab′-NEM defined as 1.0; single aliquots
# Experimental: A competition assay was run with a series of CC49-Fab′-dPEGs. In this run, single aliquots of each compound were assayed. The affinity constant of Fab′-NEM is defined as 1.0. From the data, it is that clear that the Relative Affinity Constant, which is a measure of how well the Fab′ binds to its molecular target, is minimally impacted by conjugation to branched dPEG products.
# A competition assay was run with a series of CC49-Fab′-branched dPEGs. In this run, single aliquots of each compound were assayed. The affinity constant of Fab′-NEM is defined as 1.0, and the binding constants of the branched dPEG conjugates are as follows: […]
# [1] = mouse, in vivo
# Text: In a different study, PK data was taken on normal athymic mice injected with: mCC49 Fab′-dPEG12-Tris(dPEG12-Tris(m-dPEG11)3)3, mCC49 Fab′-dPEG12-Tris(dPEG24-acid)3, mCC49 Fab′-dPEG12-Tris(m-dPEG24)3, and mCC49 Fab′-dPEG12-Tris(dPEG12-acid)3.
# PK data was taken with additional normal female athymic mice as follows: […]
# GLP-1 receptor = conditions: cited from earlier work
# implanted tumors = assay: Fused CT/PET imaging of tumor-bearing nude mice with 124I-labelled CC49 Fab′ conjugates; assay type: in vivo
# Experimental: Fused PET/CT images of mice were taken of different antibody conjugates to determine their ability to localize implanted tumors (see Examples below). In particular, CC49 Fab′-S-NEM control was compared to CC49 Fab′-dPEG12-Tris(dPEG24 carboxyl)3, the CC49 Fab′ MoAb modified with one of the disclosed branched dPEGs containing terminal carboxyl groups.
# • 1. sterilized, de-pyrogenated glass reaction vessel coated with IODO-GEN™ (SOP 310.0) (5-10 ml serum vials or 13 mm×100 mm test tubes) • 2. sterile, pyrogen-free phosphate buffer, 0.1 M. pH 7.2 • 3. sterile, pyrogen-free phosphate buffered saline • 4. 1 Sephadex G-25M (PD-10 disposable) column with tip • 5. Iodine-124 medium concentration, high activity, sodium iodide for protein iodination in pH=9.5, concentration—100 mCi/ml (IBA Molecular, Dulles VA) • 6. protein to be radiolabeled • 7. 10 sterilized, de-pyrogenated glass test tubes—12×75 mm • 8. 1 sterile Millex-GV 0.22 micron, 13 mm low protein binding filter unit (Millipore—cat. no: SLGV0130S) • 9. microliter pipettes (Eppendorf) • 10. sterilized plastic tips for microliter pipette • 11. parafilm—2 cm.×2 cm. • 12. close calibrator • 13. fume hood • 14. dry and wet radioactive waste containers • 15. disposable gloves • 16. lead shielding and lead containers for reaction vessel and test tubes • 17.2-5 ml. sterile, pyrogen-free syringes with needles • 18.1-3.5 in. spinal needle. Procedure • (Note: the specific activity desired will determine the quantities of protein and Iodine-124 used below.) • I. Place the desired amount of protein into the IODO-GEN™ reaction vessel. • 2. Add the desired amount of iodine-124 into the IODO-GEN™ reaction vessel. • 3. Add 50 μl of 0.1M, 7.2 pH phosphate buffer solution to reaction vessel. • 4. Cover the reaction vessel with parafilm. • 5. Incubate reaction vessel for 20 minutes with occasional swirling. • 6. Place reaction vessel into dose calibrator to determine radioactivity added. • 7. Stop reaction by removing reaction mixture from reaction vessel and placing mixture onto gel bed of Sephadex G-25M column (this separates unbound Iodine-124). • 8. Allow mixture to elute through column. (Note: the iodinated protein is collected from the column after the void volume has been eluted—approximately 2 ml). • 9. Place 1 ml phosphate buffered saline onto gel bed of Sephadex G-25M column and allow to elute through column. • 10. Place 4 ml phosphate buffered saline onto gel bed of Sephadex G-25M column and allow to elute through column. (Note: begin to collect Iodinated protein if you have not done so already). • 11. Collect fractions of 10 drops of eluted iodinated protein—total of 10 fractions. • 12. Assay the 10 fractions using the dose calibrator. • 13. Collect the fractions, which have the highest radioactivity and pool them together in a sterile, pyrogen-free syringe. • 14. Assay syringe of the collected iodinated fractions. • 15. Filter radiolabeled protein using Millex-GV 0.22 micron low protein binding filter unit into a sterile pyrogen-free syringe. • 16. Assay syringe of the filtered radiolabeled protein. • 17. Remove a sample for quality assurance procedures. Description of Animals • a. Female nude mice background, 4-5 weeks in age, were used in this project. For every 7 animals injected with tumors, 4 will actually show tumors in the useful size range. • b. The nude mice will receive 6×10^6 cells subcutaneously in 0.1 mL volumes in order to initiate tumors. • c. Nude mice are received on a routine basis from commercial sources. The mouse colony is routinely surveyed for adventitious agents by serological and histopathological procedures. Upon arrival, the mice are conditioned for up to one week and then moved into an experimental protocol. • d. The anesthetized mice are injected subcutaneously or intradermally into the flank area. For this injection, the mouse is held by a fold in the skin at the back and a 25G needle inserted through the skin. […]
substance,measurement,setting,value
CC49 Fab′-S-MAL-dPEG12-Tris(-dPEG12-CO2H)3 [CC49 Fab′-dPEG12-Tris(dPEG12 acid)3 (B)],Relative Affinity Constant (Ka),TAG-72,0.3
m CC49 Fab′-dPEG12-Tris(dPEG12-Tris(m-dPEG11)3)3 [Fab-dPEG-D],clearance over time,[1],least rapid clearance
"Lys^27 Exendin-4 linear polymeric PEG 2 kD: ""the Lys^27 in the Exendin-4 is modified with linear polymeric PEGs of MW, 1, 2 and 5 kD""; approximately 12 times lower binding","binding of Lys^27-PEGylated Exendin-4, times lower",GLP-1 receptor,approximately 12 times
"Lys^27 Exendin-4 linear polymeric PEG 1 kD: ""the Lys^27 in the Exendin-4 is modified with linear polymeric PEGs of MW, 1, 2 and 5 kD""; binding almost the same for 1 kD","binding of Lys^27-PEGylated Exendin-4, times lower",GLP-1 receptor,almost the same
"Lys^27 Exendin-4 linear polymeric PEG 0.5 kD: ""the Lys^27 in the Exendin-4 is modified with linear polymeric PEGs of MW, 1, 2 and 5 kD""; approximately 37 times lower binding, printed ""0.5 kD""","binding of Lys^27-PEGylated Exendin-4, times lower",GLP-1 receptor,~37 times
CC49 Fab′-S-MAL-dPEG12-Tris(m-dPEG24)3 [CC49 Fab′-dPEG12-Tris(m-dPEG24)3],fused CT/PET image: tumors and background,implanted tumors; 24 hours post injection,little background
same,fused CT/PET image: tumors and background,implanted tumors; 72 hours post injection,little background
"20 kD polymer PEG attached with two Exendin-4 molecules: ""the 20 kD polymer PEG attached with two Exendin-4 molecules""; binding reduced approximately 67 times by the ""shielding effect"" of the linear PEG",reduction of binding relative to bis-Exendin-4 without the polymeric PEG,GLP-1 receptor,approximately 67 times
CC49 Fab′-S-MAL-dPEG12-Tris(-dPEG12-Tris(m-dPEG11)3)3,Relative Affinity Constant (Ka),TAG-72,0.4
CC49 Fab′-S-MAL-dPEG12-Tris(-dPEG24-CO2H)3 [CC49 Fab′-dPEG12-Tris(dPEG24 acid)3],fused CT/PET image: tumors and background,implanted tumors; 5 hours post injection,good imaging of the tumors with some background evident
same,fused CT/PET image: tumors and background,implanted tumors; 24 hours post injection,the tumors were well imaged with continuing diminution of background
same,fused CT/PET image: tumors and background,implanted tumors; 48 hours post injection,virtually no background is evident
same,fused CT/PET image: tumors and background,implanted tumors; 72 hours post injection,virtually no background is evident
"two Exendin-4 molecules: ""two Exendin-4 molecules in a very congested branching format""; ""the bis-Exendin-4 without the large polymeric PEG""",increase in the binding,GLP-1 receptor; two Exendin-4 molecules in branching format,3.5 times
